Laboratory results reported in publication doi:10.1101/2022.01.05.475007v1 (biorxiv, 2022).

Columns and labels:
Sirt3 (hSirt3 118-399) [1] = molecular target: T1, Sirt3 (hSirt3 118-399) (Homo sapiens, UniProt Q9NTG7); assay: fluorescence deacetylation assay; type: biochemical; settings: read-out: % control at 10 μM
T1 sequence (Q9NTG7 118-399): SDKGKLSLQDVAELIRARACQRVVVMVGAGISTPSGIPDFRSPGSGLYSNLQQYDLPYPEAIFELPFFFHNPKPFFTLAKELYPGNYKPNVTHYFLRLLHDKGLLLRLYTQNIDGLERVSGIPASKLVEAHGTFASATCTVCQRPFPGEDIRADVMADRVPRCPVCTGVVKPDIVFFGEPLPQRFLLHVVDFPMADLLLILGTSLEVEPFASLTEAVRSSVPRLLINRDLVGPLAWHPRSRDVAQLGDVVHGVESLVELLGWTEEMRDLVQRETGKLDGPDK

Sirt3 (hSirt3 118-399) [2] = molecular target: T1, Sirt3 (hSirt3 118-399); assay: switchSENSE kinetics; type: binding; settings: absence of cofactors; HDAC buffer, 5% DMSO, 25 °C

SMILES | remaining activity at 10 µM (Sirt3 (hSirt3 118-399) [1]) | Kd (Sirt3 (hSirt3 118-399) [2])
C=C(CC)C(=O)c1ccc(OCC(=O)NC2c3ccccc3CCc3cc(OCC(=O)NCCCC)ccc32)c(Cl)c1Cl (centres unmarked) [AA8AC92] | 75.7% | 
CCCCNC(=O)[C@@H](Cc1ccc(Cl)cc1)NC(=O)CSC(=S)c1ccccc1 [AA12AC71] | 76.5% | 

More lines, now with the values ahead:

remaining activity at 10 µM (Sirt3 (hSirt3 118-399) [1]) | Kd (Sirt3 (hSirt3 118-399) [2]) | SMILES
72.4% |  | CCCCNC(=O)COc1ccc2c(c1)CCc1ccccc1C2NC(=O)CSC(=S)c1ccccc1 (centres unmarked) [AA8AC71]
 | 4.56 ± 3.5 µM | CCCCNC(=O)COc1ccc2c(c1)CCc1ccccc1C2NC(=O)CCCOc1cc([N+](=O)[O-])c(C(C)O)cc1OC (centres unmarked) [AA8AC40]
83.1% |  | C=C(CC)C(=O)c1ccc(OCC(=O)N[C@H](Cc2ccc(Cl)cc2)C(=O)NCCCC)c(Cl)c1Cl [AA12AC92]
